Literature values in patent US20220226239A1, “POLYMERIC MICELLE COMPLEXES, FORMULATIONS, AND USES THEREOF” (ARAVASC INC., priority 2019, published 2022).

Assays:
[1] = for pKa (tri-protic phosphate), first value: first of three pKa values; for pKa (tri-protic phosphate), second value: second of three pKa values; for pKa (tri-protic phosphate), third value: third of three pKa values
[2] = molecular target: T1, dihydropyrimidine dehydrogenase (DPD) (Homo sapiens, UniProt Q12882); conditions: background statement
T1 sequence (Q12882 4-1025): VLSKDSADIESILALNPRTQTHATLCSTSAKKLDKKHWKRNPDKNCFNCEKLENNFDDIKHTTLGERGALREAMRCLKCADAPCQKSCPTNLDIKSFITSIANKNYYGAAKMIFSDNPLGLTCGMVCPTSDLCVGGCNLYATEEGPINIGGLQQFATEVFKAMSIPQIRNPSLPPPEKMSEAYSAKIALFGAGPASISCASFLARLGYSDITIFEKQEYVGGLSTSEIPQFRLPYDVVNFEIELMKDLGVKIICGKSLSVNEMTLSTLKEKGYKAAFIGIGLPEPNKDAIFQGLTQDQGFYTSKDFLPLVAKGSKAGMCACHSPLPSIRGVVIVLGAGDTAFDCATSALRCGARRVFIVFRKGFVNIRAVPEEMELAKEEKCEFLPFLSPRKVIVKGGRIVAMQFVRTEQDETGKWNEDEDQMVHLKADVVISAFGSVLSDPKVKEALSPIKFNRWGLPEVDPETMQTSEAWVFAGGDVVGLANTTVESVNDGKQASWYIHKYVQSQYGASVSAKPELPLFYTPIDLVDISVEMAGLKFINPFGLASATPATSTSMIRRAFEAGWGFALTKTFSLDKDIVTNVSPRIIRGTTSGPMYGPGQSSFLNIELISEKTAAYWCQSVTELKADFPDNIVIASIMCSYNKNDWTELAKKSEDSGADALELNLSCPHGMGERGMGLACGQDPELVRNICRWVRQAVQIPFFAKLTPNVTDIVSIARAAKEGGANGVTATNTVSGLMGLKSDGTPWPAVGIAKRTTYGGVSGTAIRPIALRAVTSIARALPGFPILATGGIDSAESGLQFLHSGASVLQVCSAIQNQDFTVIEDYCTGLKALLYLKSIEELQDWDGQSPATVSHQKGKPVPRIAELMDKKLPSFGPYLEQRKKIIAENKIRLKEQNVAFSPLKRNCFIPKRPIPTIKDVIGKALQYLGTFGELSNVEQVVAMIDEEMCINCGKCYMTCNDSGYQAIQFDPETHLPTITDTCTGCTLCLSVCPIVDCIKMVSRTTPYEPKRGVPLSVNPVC

Row | Structure (SMILES) | pKa (tri-protic phosphate), first value [1] | Peturbed pKa (physiological pH) [1] | pKa (tri-protic phosphate), second value [1] | pKa (tri-protic phosphate), third value [1] | degradation by dihydropyrimidine dehydrogenase (DPD) [2] [%]
1 | O=c1[nH]c(=O)n([C@H]2C[C@H](O)[C@@H](COP(=O)(O)O)O2)cc1F [FdUMP, 5-Fluoro-2′-deoxyuridine-5′-O-monophosphate] | phosphate) 2.15, | 6-6.5 | 7.20 | 12.33 | 
2 | Nc1nc2c(ncn2[C@@H]2O[C@@H]3COP(=O)(O)O[C@H]4[C@@H](O)[C@H](n5cnc6c(N)ncnc65)O[C@@H]4COP(=O)(O)O[C@@H]2[C@@H]3O)c(=O)[nH]1 [cGAMP, 2′, 3′ cyclic guanosine monophosphate-adenosine monophosphate] | phosphate) 2,15, | Greater than 6.5 | 7.20 | 12.33 | 
3 | O=c1[nH]cc(F)c(=O)[nH]1 [Formulation 5-FU, 5-fluorouracil] |  |  |  |  | > 80
